# Laboratory results taken from patent publication US7312237B2, “Combination of epothilone analogs and chemotherapeutic agents for the treatment of prolilferative diseases” (Bristol-Myers Squibb Co., priority 2001, dated 2007).
# Columns and labels:
# [1] = system: tubulin isolated from calf brain; test: Tubulin polymerization assay; format: biochemical
# [2] = system: HCT-116; test: In vitro cytotoxicity (MTS assay), HCT-116; format: cell-based; details: Homo sapiens; HCT-116, 72 hour incubation
# Protocol: HCT116 human carcinoma cell lines and HCT116/VM46 cells, a MDR variant, were maintained in McCoy's 5A medium (GIBCO) and 10% heat inactivated fetal bovine serum (GIBCO). A2780 human ovarian carcinoma cells and A2780Tax cells obtained from Dr. Antonio Fojo (NCI, Bethesda, Md.) were maintained in IMEM (GIBCO) and 10% fetal bovine serum (GIBCO).
# (§1) The in vitro cytotoxicity was assessed in tumor cells by a tetrazolium-based colorimetric assay which takes advantage of the metabolic conversion of MTS (3-(4,5-dimethylthiazol-2-yl)-5-(3-carboxymethoxyphenyl)-2-(4-sulphenyl)-2H-tetrazolium, inner salt) to a reduced form that absorbs light at 492 nm. Cells were seeded 24 hr prior to drug addition. Following a 72 hour incubation at 37° C. with serially diluted compound, MTS, in combination with the electron coupling agent phenazine methosulfate, was added to the cells. The incubation was continued for 3 hours, then the absorbancy of the medium at 492 nm was measured with a spectrophotometer to obtain the number of surviving cells relative to control populations. The results are expressed as median cytotoxic concentrations (IC50 values).
# [3] = system: MIP; test: In vitro cytotoxicity (MTS assay), MIP; format: cell-based; details: MIP (MDR colon tumor line), 72 hour incubation; read-out: IC50
# Protocol: as §1
# [4] = system: Pat-7 human ovarian carcinoma; test: In vivo antitumor testing, Pat-7 in nude mice
# Protocol: (§2) All tumor implants for efficacy testing were subcutaneous (sc).
# (§3) The MTD was frequently equivalent to OD. When death occurs, the day of death was recorded.
# (§4) And, Log cell kill=T−C÷(3.32×TVDT)
# This tumor model was established from a tumor biopsy of an ovarian cancer patient (Pat-7), who was initially responsive to TAXOL® treatment but ultimately developed resistance to it following nine courses of monotherapy with TAXOL®. Prior to treatment with TAXOL®, Pat-7 also received numerous other chemotherapeutic agents including carboplatin, cytoxan, VP-16, ifosfamide and altretamine. Tumor biopsy was taken following development of TAXOL® resistance.
# [5] = system: Pat-7 human ovarian carcinoma; test: In vivo antitumor testing, Pat-7 in nude rats; details: Expt. 15, nude rats, paclitaxel at optimal dose
# Protocol: as §3, §4
# [6] = system: A2780Tax human ovarian carcinoma; details: Expt. 12, IV paclitaxel at its MTD
# Excerpt: (§5) The following human tumors were used: A2780 ovarian, A2780Tax ovarian (established from cells obtained from Dr. Antonio Fojo, Medicine Branch, NCI, Bethesda, Md.), HCT116/VM46 colon, Pat-7 ovarian (established from a tumor biopsy provided by Dr. Thomas Hamilton, Fox Chase Cancer Center, Philadelphia, Pa.) from a patient who had developed resistance to TAXOL®). The murine fibrosarcoma M5076 was also employed.
# The following tumors were passaged in the indicated host strain of mouse: murine M5076 fibrosarcoma (M5076) in C57Bl/6 mice; human A2780 and Pat-7 ovarian carcinomas, HCT116, HCT116/VM46 and LS174T colon carcinoma, Pat-21 breast carcinoma in nude mice. Tumor passage occurred biweekly for murine tumors and approximately every two to eight weeks for the various human tumor lines. With regard to efficacy testing, M5076 tumors were implanted in (C57Bl/6×DBA/2)F1 hybrid mice, and human tumors were implanted in nude mice. All tumor implants for efficacy testing were subcutaneous (sc). […]
# (§6) Antitumor activity was evaluated at the maximum tolerated dose (MTD) which is defined as the dose level immediately […] which excessive toxicity (i.e. more than one death) occurred. […] When death occurs, the day of death was recorded. […]
# (§7) To estimate tumor cell kill, the tumor volume doubling time was first calculated with the formula: […]
# [7] = system: HCT116/VM46 human colon carcinoma; test: in vivo
# Excerpt: as §5
# (§8) The following tumors were passaged in the indicated host strain of mouse: murine M5076 fibrosarcoma (M5076) in C57Bl/6 mice; human A2780 and Pat-7 ovarian carcinomas, HCT116, HCT116/VM46 and LS174T colon carcinoma, Pat-21 breast carcinoma in nude mice. Tumor passage occurred biweekly for murine tumors and approximately every two to eight weeks for the various human tumor lines. With regard to efficacy testing, M5076 tumors were implanted in (C57Bl/6×DBA/2)F1 hybrid mice, and human tumors were implanted in nude mice. All tumor implants for efficacy testing were subcutaneous (sc).
# (§9) The required number of animals needed to detect a meaningful response were pooled at the start of the experiment and each was given a subcutaneous implant of a tumor fragment (·50 mg) with a 13-gauge trocar. For treatment of early-stage tumors, the animals were again pooled before distribution to the various treatment and control groups. For treatment of animals with advanced-stage disease, tumors were allowed to grow to the predetermined size window (tumors outside the range were excluded) and animals were evenly distributed to various treatment and control groups. Treatment of each animal was based on individual body weight. Treated animals were checked daily for treatment related toxicity/mortality. Each group of animals was weighed before the initiation of treatment (Wt1) and then again following the last treatment dose (Wt2). The difference in body weight (Wt2−Wt1) provides a measure of treatment-related toxicity.
# (§10) Tumor weights (mg) were estimated from the formula: Tumor weight=(length×width^2)÷2
# Antitumor activity was evaluated at the maximum tolerated dose (MTD) which is defined as the dose level immediately […] which excessive toxicity (i.e. more than one death) occurred. […] When death occurs, the day of death was recorded.
# Tumor response end-point was expressed in terms of tumor growth delay (T-C value), defined as the difference in time (days) required for the treated tumors (T) to reach a predetermined target size compared to those of the control group (C).
# To estimate tumor cell kill, the tumor volume doubling time was first calculated with the formula:
# TVDT=Median time (days) for control tumors to reach target size−Median time (days) for control tumors to reach half the target size
# HCT116/VM46 is an MDR-resistant colon carcinoma developed from the sensitive HCT116 parent line.
# [8] = system: Pat-21 breast carcinoma
# Excerpt: as §8, §9, §10, §6, §7
# [9] = system: M5076 murine fibrosarcoma; test: In vivo antitumor testing, M5076 murine sarcoma; set-up: species or system mice; details: optimal schedule
# Protocol: The murine fibrosarcoma M5076 was also employed.
# The human tumors were maintained in Balb/c nu/nu nude mice. M5076 was maintained in C57BL/6 mice. Tumors were propagated as subcutaneous transplants in the appropriate mouse strain using tumor fragments obtained from donor mice.
# as §2, §3, §4
# [10] = system: A2780 human ovarian carcinoma; test: In vivo antitumor testing, A2780 in nude mice
# Protocol: as §2, §3, §4
# [11] = system: A2780 human ovarian carcinoma; test: In vivo antitumor testing, A2780 in nude rats; details: nude rats, IV paclitaxel
# Protocol: as §3, §4
# A2780 grown in nude rats was also utilized.
# [12] = system: LS174T human colon carcinoma; test: In vivo antitumor testing, LS174T xenograft; set-up: species or system nude mice; details: Expt. R578, iv paclitaxel 36 mg/kg/inj every 2 days for 5 doses
# Protocol: as §2, §3, §4
structure (smiles),measurement,setting,value
C/C(=C\c1csc(C)n1)[C@@H]1C[C@@H]2O[C@@H]2CCC[C@H](C)[C@H](O)[C@@H](C)C(=O)C(C)(C)[C@@H](O)CC(=O)O1 [Epothilone A],Ratio of Polymerization Potency of Analog/Paclitaxel,[1],0.4
C/C(=C\c1csc(C)n1)[C@@H]1C[C@@H]2O[C@]2(C)CCC[C@H](C)[C@H](O)[C@@H](C)C(=O)C(C)(C)[C@@H](O)CC(=O)O1 [Epothilone B],Ratio of Polymerization Potency of Analog/Paclitaxel,[1],0.3
"CC(=O)O[C@H]1C(=O)[C@@]2(C)[C@H]([C@H](OC(=O)c3ccccc3)[C@]3(O)C[C@H](OC(=O)[C@H](O)[C@@H](NC(=O)c4ccccc4)c4ccccc4)C(C)=C1C3(C)C)[C@]1(OC(C)=O)CO[C@@H]1C[C@@H]2O [Paclitaxel, reference compound]",IC50,[2],2.1 nM
same,IC50,[3],> 112 nM
same,Paclitaxel LCK,"[4]; Expt. 8, IV paclitaxel at optimal dose (24-36 mg/kg/inj) and schedule",1.3
same,Paclitaxel (IV) LCK,"[4]; Expt. 9, IV paclitaxel at optimal dose (24-36 mg/kg) and schedule",1.2
same,Paclitaxel LCK,"[4]; Expt. R403, IV paclitaxel at optimal dose (24-36 mg/kg/inj) and schedule",0.6
same,Paclitaxel LCK,[5],2.2
same,Paclitaxel cures/total,[5]; listed as PACLITAXEL,(0/6)
same,Paclitaxel cures/total,[5]; listed as paclitaxel,no cures
same,Paclitaxel LCK,[6],0.8
same,Paclitaxel LCK,"[7]; Expt. 32, IV paclitaxel at its MTD",0.4
same,Paclitaxel LCK,"[7]; Expt. 33, IV paclitaxel at its MTD",0.7
same,median LCK of 12 consecutive studies,[7]; paclitaxel at its MTD,0.35 LCK
same,Paclitaxel LCK,"[8]; Expt. R667, paclitaxel at MTD of 36 mg/kg/inj",0.3
same,MTD,"[8]; paclitaxel, two courses of 3 doses every 4 days",36 mg/kg/inj
same,Paclitaxel LCK,"[9]; Expt. 159, IV paclitaxel",0.1
same,Paclitaxel LCK,"[9]; Expt. 162, IV paclitaxel",0.5
same,Paclitaxel LCK,"[10]; Expt. 89, IV paclitaxel at optimal dose",2
same,Paclitaxel LCK,"[10]; Expt. 92, IV paclitaxel at optimal dose",3.5
same,cures,[11],5 of 7
same,Paclitaxel LCK,[12],2.0
